Source: ChEMBL document CHEMBL6134860, “Discovery and optimization of a novel carboxamide scaffold with selective antimalarial activity” (Eur J Med Chem, 2025)
Values after ≈ are worked out from the molar mass of the structure shown.

Assays:
[1] = Metabolic stability in human liver microsomes assessed as half life
[2] = Metabolic stability in human liver microsomes assessed as apparent intrinsic clearance
[3] = Lipophilicity, logD of compound at pH 7.4; conditions: buffer
[4] = Metabolic stability in rat hepatocytes assessed as apparent intrinsic clearance measured per 10^6 cells
[5] = Cytotoxicity against human HepG2 cells measured after 72 hrs by hoechst 33342 staining based imaging assay; format: toxicity, cell-based
[6] = Metabolic stability in rat hepatocytes assessed as half life
Plasmodium falciparum [7] = assay: microbe, parasite or virus in culture; format: functional, organism-based; conditions: W2, 72 h
[8] = Aqueous solubility of compound at pH 7.4; conditions: buffer
Plasmodium falciparum [9] = assay: microbe, parasite or virus in culture; format: functional, organism-based; conditions: 3D7, 72 h
Plasmodium falciparum [10] = assay: microbe, parasite or virus in culture; format: functional, organism-based; conditions: C2B, 72 h
Plasmodium falciparum [11] = assay: microbe, parasite or virus in culture; format: functional, organism-based; conditions: D6, 72 h
Plasmodium falciparum [12] = assay: microbe, parasite or virus in culture; format: functional, organism-based; conditions: C235, 72 h
Plasmodium falciparum [13] = assay: Antiplasmodial activity against Plasmodium falciparum strain NF54 assessed as 99% parasite clearance time in presence of 2% haematocrit and 0.5 % parasitemia at 10 times EC50 followed by media with compound exchanged daily measured after 2 weeks by standard hypoxanthine assay; format: functional

Row | SMILES | CC50 at 72 h ([5]; read-out: CC50) [nM] | CC50 at 72 h ([5]; read-out: pCC50 (converted)) [nM] | EC50 (Plasmodium falciparum [7]; read-out: pEC50 (converted)) [nM] | EC50 (Plasmodium falciparum [7]; read-out: EC50) [nM] | further results
1 | Cc1ccc(N(C)C(=O)c2ncn(-c3ccc(C)cc3)n2)cc1 | > 10000 | > 10000 | 1740 | – | half-life [1]: 11.1 min; microsomal CLint [2]: 125 µL/min/mg; logD [3]: 3.15; CLH(app) [4]: > 92.4 µL/min; half-life [6]: < 7.5 min
2 | Cc1ccc(N(C)C(=O)c2ncn(-c3ccc(Cl)cc3)n2)cc1 | > 10000 | > 10000 | 562 | – | half-life [1]: 33.8 min; microsomal CLint [2]: 41.1 µL/min/mg; logD [3]: 3.36; CLH(app) [4]: > 92.4 µL/min; half-life [6]: < 7.5 min; solubility [8]: 4.4 µM (≈ 1.44 µg/mL)
3 | [2H]C([2H])([2H])N(C(=O)c1cc(-c2ccc(Cl)cc2)ccn1)c1ccc(Cl)cc1 | – | – | 200 | 198000 | EC50 (Plasmodium falciparum [9]; read-out: EC50): 588 nM; EC50 (Plasmodium falciparum [9]; read-out: pEC50 (converted)): 589 nM; EC50 (Plasmodium falciparum [10]; read-out: EC50): 104 nM; EC50 (Plasmodium falciparum [10]; read-out: pEC50 (converted)): 105 nM; EC50 (Plasmodium falciparum [11]; read-out: EC50): 608 nM; EC50 (Plasmodium falciparum [11]; read-out: pEC50 (converted)): 603 nM; EC50 (Plasmodium falciparum [12]; read-out: EC50): 199 nM; EC50 (Plasmodium falciparum [12]; read-out: pEC50 (converted)): 200 nM
4 | Cc1ccc(-c2cncc(C(=O)N(C)c3ccc(Cl)cc3)c2)cc1 | > 10000 | > 10000 | – | – | half-life [1]: 6.1 min; microsomal CLint [2]: 228 µL/min/mg; logD [3]: 4.32; CLH(app) [4]: > 92.4 µL/min; half-life [6]: < 7.5 min
5 | O=C1C(O)=C([C@H]2CC[C@H](c3ccc(Cl)cc3)CC2)C(=O)c2ccccc21 [ATOVAQUONE] | – | – | 0.759 | – | EC50 (Plasmodium falciparum [9]; read-out: pEC50 (converted)): 0.851 nM; EC50 (Plasmodium falciparum [10]; read-out: pEC50 (converted)): < 1000 nM; EC50 (Plasmodium falciparum [11]; read-out: pEC50 (converted)): 0.603 nM; EC50 (Plasmodium falciparum [12]; read-out: pEC50 (converted)): 1.95 nM
6 | CN(C(=O)c1ncc(-c2ccc(Cl)cc2)o1)c1ccc(Cl)cc1 | – | – | 170 | 170 | EC50 (Plasmodium falciparum [9]; read-out: EC50): 502 nM; EC50 (Plasmodium falciparum [9]; read-out: pEC50 (converted)): 501 nM; EC50 (Plasmodium falciparum [10]; read-out: EC50): 168 nM; EC50 (Plasmodium falciparum [10]; read-out: pEC50 (converted)): 166 nM; EC50 (Plasmodium falciparum [11]; read-out: EC50): 840 nM; EC50 (Plasmodium falciparum [11]; read-out: pEC50 (converted)): 832 nM; EC50 (Plasmodium falciparum [12]; read-out: EC50): 281 nM; EC50 (Plasmodium falciparum [12]; read-out: pEC50 (converted)): 282 nM
7 | C[C@H]1[C@@H](O)O[C@@H]2O[C@@]3(C)CC[C@H]4[C@H](C)CC[C@@H]1[C@@]24OO3 [ARTENIMOL] | – | – | 0.417 | – | EC50 (Plasmodium falciparum [9]; read-out: pEC50 (converted)): 0.661 nM; EC50 (Plasmodium falciparum [10]; read-out: pEC50 (converted)): 0.178 nM; EC50 (Plasmodium falciparum [11]; read-out: pEC50 (converted)): 1.55 nM; EC50 (Plasmodium falciparum [12]; read-out: pEC50 (converted)): 2.95 nM
8 | Cc1ccc(-c2ncc(C(=O)N(C)c3ccc(Cl)cc3)o2)cc1 | > 10000 | > 10000 | > 10000 | > 10000 | –
9 | Cc1nc(-c2ccc(Cl)cc2)sc1C(=O)N(C)c1ccc(Cl)cc1 | > 10000 | > 10000 | > 10000 | > 10000 | –
10 | O=C(Nc1ccc([N+](=O)[O-])cc1)c1ncn(-c2ccc(Cl)cc2)n1 | > 10000 | > 10000 | > 10000 | > 10000 | –
11 | CC(=O)c1ccc(N(C)C(=O)c2ncn(-c3ccc(Cl)cc3)n2)cc1 | > 10000 | > 10000 | 2400 | – | –
12 | CCc1ccc(-n2cnc(C(=O)N(C)c3ccc(C)c(C)c3)n2)cc1 | > 10000 | > 10000 | 2000 | – | –
13 | Cc1ccc(-c2cnc(C(=O)N(C)c3ccc(Cl)cc3)s2)cc1 | > 10000 | > 10000 | > 10000 | > 10000 | –
14 | Cc1ccc(-n2cnc(N(C)C(=O)c3ccc(Cl)cc3)n2)cc1 | > 10000 | > 10000 | > 1820 | > 1800 | –
15 | CCc1ccc(-n2cnc(C(=O)N(C)c3ccc(OC)cc3)n2)cc1 | > 10000 | > 10000 | 933 | – | –
16 | CCc1nc(N)nc(N)c1-c1ccc(Cl)cc1 [PYRIMETHAMINE] | – | – | – | – | Time (Plasmodium falciparum [13]): 25.9 h
17 | Cc1cccc(N(C)C(=O)c2ncn(-c3ccc(Cl)cc3)n2)c1 | > 10000 | > 10000 | > 4070 | > 4030 | –
18 | CN(C(=O)c1ncn(-c2ccc(Cl)cc2)n1)c1ccc(Cl)c(Cl)c1 | > 10000 | > 10000 | 933 | – | –
19 | CN(C(=O)c1cnc(-c2ccc(Cl)cc2)[nH]1)c1ccc(Cl)cc1 | > 10000 | > 10000 | > 2240 | > 2260 | –
20 | COc1ccc(N(C)C(=O)c2ncn(-c3ccc(OC)cc3)n2)cc1 | > 10000 | > 10000 | > 10000 | > 10000 | –
21 | CN(C(=O)c1ncn(-c2ccc(Cl)cc2)n1)c1ccc(Cl)cc1 | > 10000 | > 10000 | 525 | – | –
